The text below walks through data of patent publication US20090029992A1, “SUBSTITUTED PYRAZOLE COMPOUNDS” (priority 2007, published 2009).

For assay [1], the target named is T1, N-terminal GST-tagged recombinant human Flt3, residues 564-end (Homo sapiens, UniProt P36888).
T1 construct: recombinant human Flt3, residues 564-end; GST (N); purchased Upstate USA Inc, 706 Forest Street, Charlottesville, Va
T1 sequence (P36888 564-993 limits assumed): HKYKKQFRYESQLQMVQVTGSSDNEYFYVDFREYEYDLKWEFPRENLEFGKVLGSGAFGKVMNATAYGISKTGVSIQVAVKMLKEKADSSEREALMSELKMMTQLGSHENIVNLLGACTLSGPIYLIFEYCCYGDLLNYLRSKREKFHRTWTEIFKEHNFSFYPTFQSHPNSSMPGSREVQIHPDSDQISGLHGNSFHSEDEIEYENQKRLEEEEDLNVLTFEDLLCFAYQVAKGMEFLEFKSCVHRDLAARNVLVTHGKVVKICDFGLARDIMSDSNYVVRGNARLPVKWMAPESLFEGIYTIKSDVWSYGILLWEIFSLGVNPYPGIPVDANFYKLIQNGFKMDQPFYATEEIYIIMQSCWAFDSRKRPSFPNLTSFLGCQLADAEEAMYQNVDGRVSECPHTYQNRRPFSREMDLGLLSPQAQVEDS
As to the kind of experiment: Flt3 kinase inhibition assay (33P-ATP filter assay). The assay is classed as biochemical. The procedure, abridged: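 Serial compound dilutions incubated 40 min at room temperature with 5-10 mU Flt3 kinase, 50 μM peptide substrate and [γ-33P]ATP/10 mM magnesium acetate, pH 7.0. Phosphoric acid stop, filter capture and scintillation counting; activity compared with uninhibited reactions.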

For the next assay, the target named is T2, recombinant Aurora A (Homo sapiens, UniProt O14965).
T2 construct: purchased Upstate, Lake Placid, N.Y
T2 sequence (O14965 1-403): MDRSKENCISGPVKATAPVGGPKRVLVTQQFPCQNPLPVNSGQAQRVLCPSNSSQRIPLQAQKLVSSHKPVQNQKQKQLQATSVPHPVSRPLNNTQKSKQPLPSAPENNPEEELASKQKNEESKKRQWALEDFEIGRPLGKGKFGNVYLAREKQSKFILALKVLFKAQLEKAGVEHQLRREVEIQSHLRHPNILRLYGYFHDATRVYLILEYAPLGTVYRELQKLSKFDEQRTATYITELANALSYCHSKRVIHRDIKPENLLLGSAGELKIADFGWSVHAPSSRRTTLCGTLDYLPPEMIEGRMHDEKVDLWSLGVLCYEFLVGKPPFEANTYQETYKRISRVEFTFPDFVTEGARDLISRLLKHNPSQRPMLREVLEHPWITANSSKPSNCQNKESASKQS
As to the kind of experiment: Aurora A (Aurora 2) inhibition assay, Z'-Lyte kinase assay. In kind it is biochemical. Particulars: group with IC50 greater than 100 nM; ATP 10 μM, 1 h. The procedure, abridged:
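Z'-Lyte FRET assay: Aurora A (200-500 ng/mL final), Ser/Thr 1 peptide (2 μM) and ATP (10 μM) in 50 mM HEPES pH 7.5, 10 mM MgCl2, 5 mM EGTA, 0.05% Brij-35, 2 mM DTT, 1 h at room temperature. Coumarin/fluorescein emission ratio converted to percent phosphorylation; dose-response curves plotted.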

With `COCCN(C)c1cc(Nc2cc(C)[nH]n2)nc(-c2cccc(OC)c2)n1` [Compound 68, N^4-(2-methoxyethyl)-2-(3-methoxyphenyl)-N^4-methyl-N^6-(5-methyl-1H-pyrazol-3-yl)pyrimidine-4,6-diamine], the results for the IC50 (in assay [1] (40 minutes at room temperature); at recombinant Aurora A) were not above 0.1 µM and not above 1 µM, respectively.

Turning to `Cc1cc(Nc2cc(N(C)CCN(C)C)nc(-c3ccc4ccccc4c3)n2)n[nH]1` [Example 142, N^4-(2-(dimethylamino)ethyl)-N^4-methyl-N^6-(5-methyl-1H-pyrazol-3-yl)-2-(naphthalen-2-yl)pyrimidine-4,6-diamine], the half-inhibitory concentration (IC50) (commonly the concentration that gives 50% inhibition) in assay [1] (40 minutes at room temperature) was not above 0.1 µM; on recombinant Aurora A, not above 1 µM.

For `COCCN(C)c1cc(Nc2cc(C)[nH]n2)nc(-c2ccccc2Cl)n1` [Compound 63], the values for the IC50 (in assay [1] (40 minutes at room temperature); on recombinant Aurora A) were not above 0.1 µM and not above 1 µM, respectively.

As for `Cc1cc(Nc2cc(NC3CCOCC3)nc(-c3ccccc3C(F)(F)F)n2)n[nH]1` [Compound 81, N^4-(5-methyl-1H-pyrazol-3-yl)-N^6-(tetrahydro-2H-pyran-4-yl)-2-(2-(trifluoromethyl)phenyl)pyrimidine-4,6-diamine], the 50% inhibitory concentration (IC50) in assay [1] (40 minutes at room temperature) was not above 0.1 µM; at recombinant Aurora A, not above 1 µM.

For `COCCN(C)c1cc(Nc2cc(C)[nH]n2)nc(-c2ccc(OC)cc2)n1` [Compound 67, N^4-(2-methoxyethyl)-2-(4-methoxyphenyl)-N^4-methyl-N^6-(5-methyl-1H-pyrazol-3-yl)pyrimidine-4,6-diamine], the IC50 in assay [1] (40 minutes at room temperature) is not above 0.1 µM; on recombinant Aurora A it was not above 1 µM.

With `Cc1cc(Nc2cc(N3CCN(C)CC3)nc(-c3ccccc3C(F)(F)F)n2)n[nH]1` [Compound 102, N-(5-methyl-1H-pyrazol-3-yl)-6-(4-methylpiperazin-1-yl)-2-(2-(trifluoromethyl)phenyl)pyrimidin-4-amine], the values for the half-maximal inhibitory concentration (IC50) (in assay [1] (40 minutes at room temperature); on recombinant Aurora A) were not above 0.1 µM and not above 1 µM, respectively.

With `Cc1cc(Nc2cc(NC3CCOCC3)nc(-c3cccc(C(F)(F)F)c3)n2)n[nH]1` [Compound 80, N^4-(5-methyl-1H-pyrazol-3-yl)-N^6-(tetrahydro-2H-pyran-4-yl)-2-(3-(trifluoromethyl)phenyl)pyrimidine-4,6-diamine], the half-inhibitory concentration (IC50) was not above 0.1 µM in assay [1] (40 minutes at room temperature) and not above 1 µM at recombinant Aurora A.

As for `Cc1cc(Nc2cc(N(C)CCN(C)C)nc(-c3cccc(C(F)(F)F)c3)n2)n[nH]1` [Compound 113, N^4-(2-(dimethylamino)ethyl)-N^4-methyl-N^6-(5-methyl-1H-pyrazol-3-yl)-2-(3-(trifluoromethyl)phenyl)pyrimidine-4,6-diamine], the concentration for half-maximal inhibition (IC50) in assay [1] (40 minutes at room temperature) is not above 0.1 µM; on recombinant Aurora A, not above 1 µM.

On to `COCCN(C)c1cc(Nc2cc(C)[nH]n2)nc(-c2cccc3c2OCCO3)n1` [Example 150, 2-(2,3-dihydrobenzo[b][1,4]dioxin-5-yl)-N^4-(2-methoxyethyl)-N^4-methyl-N^6-(5-methyl-1H-pyrazol-3-yl)pyrimidine-4,6-diamine], for which the half-maximal inhibitory concentration (IC50) in assay [1] (40 minutes at room temperature) was not above 0.1 µM; at recombinant Aurora A it was not above 1 µM.

On to `Cc1cc(Nc2cc(N3CCN(C)CC3)nc(-c3cc(F)cc(Cl)c3)n2)n[nH]1` [Compound 97], for which the IC50 was not above 0.1 µM in assay [1] (40 minutes at room temperature) and not above 1 µM at recombinant Aurora A.

Turning to `Cc1cc(Nc2cc(N(C)CCN(C)C)nc(-c3ccc4c(c3)OCO4)n2)n[nH]1` [Example 146, 2-(benzo[d][1,3]dioxol-5-yl)-N^4-(2-(dimethylamino)ethyl)-N^4-methyl-N^6-(5-methyl-1H-pyrazol-3-yl)pyrimidine-4,6-diamine], the half-inhibitory concentration (IC50) in assay [1] (40 minutes at room temperature) is not above 0.1 µM; on recombinant Aurora A it was not above 1 µM.

Consider `COCCN(C)c1cc(Nc2cc(C)[nH]n2)nc(-c2ccccc2C(F)(F)F)n1` [Example 126, N^4-(2-methoxyethyl)-N^4-methyl-N^6-(5-methyl-1H-pyrazol-3-yl)-2-(2-(trifluoromethyl)phenyl)pyrimidine-4,6-diamine], for which the IC50 in assay [1] (40 minutes at room temperature) is not above 0.1 µM; on recombinant Aurora A it was not above 1 µM.

On to `Cc1cc(Nc2cc(NC3CCOCC3)nc(-c3ccc(C(F)(F)F)cc3)n2)n[nH]1` [Compound 79, N^4-(5-methyl-1H-pyrazol-3-yl)-N^6-(tetrahydro-2H-pyran-4-yl)-2-(4-(trifluoromethyl)phenyl)pyrimidine-4,6-diamine], for which the figures for the concentration for half-maximal inhibition (IC50) (in assay [1] (40 minutes at room temperature); at recombinant Aurora A) were not above 0.1 µM and not above 1 µM, respectively.

For `COCCN(C)c1cc(Nc2cc(C)[nH]n2)nc(-c2ccc(N(C)C)cc2)n1` [Compound 118, 2-(4-(dimethylamino)phenyl)-N^4-(2-methoxyethyl)-N^4-methyl-N^6-(5-methyl-1H-pyrazol-3-yl)pyrimidine-4,6-diamine], the half-maximal inhibitory concentration (IC50) in assay [1] (40 minutes at room temperature) was not above 0.1 µM; at recombinant Aurora A it was not above 1 µM.

On to `Cc1cc(Nc2cc(NC3CCOCC3)nc(-c3ccc(C(C)(C)C)cc3)n2)n[nH]1` [Compound 70, 2-(4-tert-butylphenyl)-N^4-(5-methyl-1H-pyrazol-3-yl)-N^6-(tetrahydro-2H-pyran-4-yl)pyrimidine-4,6-diamine], for which the half-inhibitory concentration (IC50) was not above 0.1 µM in assay [1] (40 minutes at room temperature) and not above 1 µM at recombinant Aurora A.

As to `COCCN(C)c1cc(Nc2cc(C)[nH]n2)nc(-c2cccc(C)c2)n1` [Compound 65, N^4-(2-methoxyethyl)-N^4-methyl-N^6-(5-methyl-1H-pyrazol-3-yl)-2-m-tolylpyrimidine-4,6-diamine], the half-inhibitory concentration (IC50) in assay [1] (40 minutes at room temperature) is not above 0.1 µM; on recombinant Aurora A, not above 1 µM.

As to `Cc1cc(Nc2cc(N3CCN(C)CC3)nc(-c3ccc(-c4ccccc4)cc3)n2)n[nH]1` [Example 157, 2-(biphenyl-4-yl)-N-(5-methyl-1H-pyrazol-3-yl)-6-(4-methylpiperazin-1-yl)pyrimidin-4-amine], the values for the IC50 (in assay [1] (40 minutes at room temperature); at recombinant Aurora A) were not above 0.1 µM and not above 1 µM, respectively.

For `Cc1cc(Nc2cc(NC3CCOCC3)nc(-c3cccc4ccccc34)n2)n[nH]1` [Example 127, N^4-(5-methyl-1H-pyrazol-3-yl)-2-(naphthalen-1-yl)-N^6-(tetrahydro-2H-pyran-4-yl)pyrimidine-4,6-diamine], the half-inhibitory concentration (IC50) in assay [1] (40 minutes at room temperature) is not above 0.1 µM; at recombinant Aurora A, not above 1 µM.

As to `COCCN(C)c1cc(Nc2cc(C)[nH]n2)nc(-c2ccc3ccccc3c2)n1` [Example 149, N^4-(2-methoxyethyl)-N^4-methyl-N^6-(5-methyl-1H-pyrazol-3-yl)-2-(naphthalen-2-yl)pyrimidine-4,6-diamine], the IC50 was not above 0.1 µM in assay [1] (40 minutes at room temperature) and not above 1 µM on recombinant Aurora A.

Turning to `COCCN(C)c1cc(Nc2cc(C)[nH]n2)nc(-c2cccc(C(F)(F)F)c2)n1` [Compound 125, N^4-(2-methoxyethyl)-N^4-methyl-N^6-(5-methyl-1H-pyrazol-3-yl)-2-(3-(trifluoromethyl)phenyl)pyrimidine-4,6-diamine], the 50% inhibitory concentration (IC50) (in assay [1] (group with IC50 greater than 100 nM); on recombinant Aurora A) was not above 1 µM throughout.

Consider `COCCN(C)c1cc(Nc2cc(C)[nH]n2)nc(-c2cccc3ccccc23)n1` [Example 148, N^4-(2-methoxyethyl)-N^4-methyl-N^6-(5-methyl-1H-pyrazol-3-yl)-2-(naphthalen-1-yl)pyrimidine-4,6-diamine], for which the concentration for half-maximal inhibition (IC50) in assay [1] (40 minutes at room temperature) was not above 0.1 µM; at recombinant Aurora A, not above 1 µM.

In the case of `Cc1cc(Nc2cc(N3CCN(C)CC3)nc(-c3ccc(C(F)(F)F)cc3)n2)n[nH]1` [Compound 100], the half-maximal inhibitory concentration (IC50) in assay [1] (40 minutes at room temperature) was not above 0.1 µM; on recombinant Aurora A, not above 1 µM.

With `Cc1cc(Nc2cc(N(C)CCN(C)C)nc(-c3cccc(N(C)C)c3)n2)n[nH]1` [Compound 107], the concentration for half-maximal inhibition (IC50) in assay [1] (40 minutes at room temperature) was not above 0.1 µM; on recombinant Aurora A, not above 1 µM.

For the compound `Cc1cc(Nc2cc(N3CCN(C)CC3)nc(-c3cccc4c3OCCO4)n2)n[nH]1` [Example 136, 2-(2,3-dihydrobenzo[b][1,4]dioxin-5-yl)-N-(5-methyl-1H-pyrazol-3-yl)-6-(4-methylpiperazin-1-yl)pyrimidin-4-amine], the IC50 in assay [1] (40 minutes at room temperature) was not above 0.1 µM; on recombinant Aurora A, not above 1 µM.

Take `Cc1cc(Nc2cc(N(C)CCN(C)C)nc(-c3ccc(C(C)(C)C)cc3)n2)n[nH]1` [Compound 103, 2-(4-tert-butylphenyl)-N^4-(2-(dimethylamino)ethyl)-N^4-methyl-N^6-(5-methyl-1H-pyrazol-3-yl)pyrimidine-4,6-diamine]: the IC50 was not above 0.1 µM in assay [1] (40 minutes at room temperature) and not above 1 µM at recombinant Aurora A.
